Data: patent US11369565B2, “Amino-pyrimidine skeletal muscle modulators” (Cytokinetics, Inc., priority 2010, dated 2022)

Each molecule was assayed on rabbit skeletal myofibrils (approximately 90% fast fibers) (assay: Activation of fast skeletal myofibrils (PUMA coupled-enzyme ATPase assay at pCa25)). Details: concentration at which the compound increased the enzymatic activity by 40%; calcium at pCa25; PM12 buffer pH 6.8.
Format: biochemical
Method in brief: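 Detergent-washed rabbit psoas myofibrils tested at calcium giving 25% of maximal rate (pCa25). ATPase activity tracked by pyruvate kinase/lactate dehydrogenase coupling, NADH oxidation read as absorbance at 340 nm, in PM12 buffer (12 mM Pipes, 2 mM MgCl2, 1 mM DTT, pH 6.8).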
NC(=O)c1ccc(F)c(-c2cnc(NC[C@]3(c4ncccc4F)C[C@H](F)C3)nc2)c1O [4-fluoro-3-[2-({[3-fluoro)-1-(3-fluoro(2-pyridyl))cyclobutyl]methyl}amino)pyrimidin-5-yl]-2-hydroxybenzamide] was tested, and the “Mean AC1.4” value was “A (A=<1 uM)”.
In the case of NC(=O)c1ccc(F)c(-c2cnc(NCC3(c4ncccc4F)CC(F)C3)nc2)c1 (stereo not drawn) [4-fluoro-3-[2-({[3-fluoro-1-(3-fluoro(2-pyridyl))cyclobutyl]methyl}amino)pyrimidin-5-yl]benzamide], the “Mean AC1.4” value is reported as “A (A=<1 uM)”.
NC(=O)c1ccc(F)c(-c2cnc(NCC3(c4ncccc4F)CCC3)nc2)c1 [4-fluoro-3-[2-({[(3-fluoro(2-pyridyl))cyclobutyl]methyl}amino)pyrimidin-5-yl]benzamide] was tested, and the “Mean AC1.4” value was “A (A=<1 uM)”.
For CC(C)(Nc1ncc(-c2cnnc(C(N)=O)c2)cn1)c1ncccc1Cl [5-(2-{[1-(3-chloro(2-pyridyl))-isopropyl]amino)pyrimidin-5-yl)pyridazine-3-carboxamide], the “Mean AC1.4” value was “B (B=1-10 uM)”.
With CC(C)(Nc1ncc(-c2nnc(C(N)=O)s2)cn1)c1ncccc1Cl [5-(2-{[1-(3-chloro(2-pyridyl))-isopropyl]amino}pyrimidin-5-yl)-1,3,4-thiadiazole-2-carboxamide] the “Mean AC1.4” value was “D (D=>20 uM)”.
CC(C)(Nc1ncc(-c2cnc(C(N)=O)s2)cn1)c1ncccc1Cl [5-(2-{[1-(3-chloro(2-pyridyl))-isopropyl]amino}pyrimidin-5-yl)-1,3-thiazole-2-carboxamide] was tested, and the “Mean AC1.4” value was “B (B=1-10 uM)”.
COc1ncc(-c2cnc(NC(C)(C)c3ncccc3Cl)nc2)cc1C#N [5-(2-{[1-(3-chloro(2-pyridyl))-isopropyl]amino}pyrimidin-5-yl)-2-methoxypyridine-3-carbonitrile] was tested, and the “Mean AC1.4” value was “D (D=>20 uM)”.
With COc1ncc(-c2cnc(NC(C)(C)c3ncccc3Cl)nc2)cc1C(N)=O [5-(2-{[1-(3-chloro(2-pyridyl))-isopropyl]amino}pyrimidin-5-yl)-2-methoxypyridine-3-carboxamide] the “Mean AC1.4” value was “B (B=1-10 uM)”.
For CC(C)(Nc1ncc(-c2c[nH]c(=O)c(C(N)=O)c2)cn1)c1ncccc1Cl [5-(2-{[1-(3-chloro(2-pyridyl))-isopropyl]amino}pyrimidin-5-yl)-2-oxohydropyridine-3-carboxamide], the “Mean AC1.4” value was “B (B=1-10 uM)”.
In the case of CC(C)(Nc1ncc(-c2cc(C(N)=O)no2)cn1)c1ncccc1Cl [5-(2-{[1-(3-chloro(2-pyridyl))-isopropyl]amino}pyrimidin-5-yl)isoxazole-3-carboxamide], the “Mean AC1.4” value is reported as “B (B=1-10 uM)”.
In the case of CC(C)(Nc1ncc(-c2cc(C(N)=O)n[nH]2)cn1)c1ncccc1Cl [5-(2-{[1-(3-chloro(2-pyridyl))-isopropyl]amino}pyrimidin-5-yl)pyrazole-3-carboxamide], the “Mean AC1.4” value is reported as “C (C=10-20 uM)”.
CC(C)(Nc1ncc(-c2cncc(C(N)=O)c2)cn1)c1ncccc1Cl [5-(2-{[1-(3-chloro(2-pyridyl))-isopropyl]amino}pyrimidin-5-yl)pyridine-3-carboxamide] was tested, and the “Mean AC1.4” value was “B (B=1-10 uM)”.
In the case of CC(C)(Nc1ncc(-c2ccc(C(N)=O)s2)cn1)c1ncccc1Cl [5-(2-{[1-(3-chloro(2-pyridyl))-isopropyl]amino}pyrimidin-5-yl)thiophene-2-carboxamide], the “Mean AC1.4” value is reported as “B (B=1-10 uM)”.
For CC(C)(Nc1ncc(-c2ccc(C(=O)O)s2)cn1)c1ncccc1Cl [5-(2-{[1-(3-chloro(2-pyridyl))-isopropyl]amino}pyrimidin-5-yl)thiophene-2-carboxylic acid], the “Mean AC1.4” value was “D (D=>20 uM)”.
With Cn1nc(C(N)=O)cc1-c1cnc(NC(C)(C)c2ncccc2Cl)nc1 [5-(2-{[1-(3-chloro(2-pyridyl))-isopropyl}amino}pyrimidin-5-yl)-1-methylpyrazole-3-carboxamide] the “Mean AC1.4” value was “D (D=>20 uM)”.
For CC(C)(CNc1ncc(-c2ccc3[nH]c(=O)[nH]c3c2)cn1)c1ccc(F)cc1 [5-(2-{[2-(4-fluorophenyl)-2-methylpropyl]amino}pyrimidin-5-yl)-3-hydrobenzimidazol-2-one], the “Mean AC1.4” value was “B (B=1-10 uM)”.
CC(C)(CNc1ncc(-c2cncc(C#N)c2)cn1)c1ccc(F)cc1 [5-(2-{[2-(4-fluorophenyl)-2-methylpropyl]amino}pyrimidin-5-yl)pyridine-3-carbonitrile] was tested, and the “Mean AC1.4” value was “B (B=1-10 uM)”.
For CC(C)(CNc1ncc(-c2cncc(C(N)=O)c2)cn1)c1ccc(F)cc1 [5-(2-{[2-(4-fluorophenyl)-2-methylpropyl]amino}pyrimidin-5-yl)pyridine-3-carboxamide], the “Mean AC1.4” value was “B (B=1-10 uM)”.
In the case of N#Cc1n[nH]c2ccc(-c3cnc(NC4(c5ncccc5F)CCC4)nc3)cc12 [5-(2-{[(3-fluoro-2-pyridyl)cyclobutyl]amino}pyrimidin-5-yl)-1H-indazole-3-carbonitrile], the “Mean AC1.4” value is reported as “B (B=1-10 uM)”.
With NC(=O)c1n[nH]c2ccc(-c3cnc(NC4(c5ncccc5F)CCC4)nc3)cc12 [5-(2-{[(3-fluoro-2-pyridyl)cyclobutyl]amino}pyrimidin-5-yl)-1H-indazole-3-carboxamide] the “Mean AC1.4” value was “A (A=<1 uM)”.
In the case of NC(=O)c1nc2cnc(NCC3(c4ncccc4F)CCC3)nc2s1 [5-({[(3-fluoro-2-pyridyl)cyclobutyl]methyl}amino)-1,3-thiazolo[5,4-d]pyrimidine-2-carboxamide], the “Mean AC1.4” value is reported as “C (C=10-20 uM)”.
With O=C(O)c1nc2cnc(NCC3(c4ncccc4F)CCC3)nc2s1 [5-({[(3-fluoro-2-pyridyl)cyclobutyl]methyl}amino)-1,3-thiazolo[5,4-d]pyrimidine-2-carboxylic acid] the “Mean AC1.4” value was “D (D=>20 uM)”.
For CC(C)(CNc1ncc(Br)cn1)c1ccc(F)cc1 [5-Bromo-N-(2-(4-fluorophenyl)-2-methylpropyl)pyrimidin-2-amine], the “Mean AC1.4” value was “D (D=>20 uM)”.
NC(=O)c1cc(-c2cnc(NC[C@]3(c4ncccc4F)C[C@H](F)C3)nc2)ccc1O [5-[2-({[3-fluoro-1-(3-fluoro(2-pyridyl))cyclobutyl]methyl)amino)pyrimidin-5-yl]-2-hydroxybenzamide] was tested, and the “Mean AC1.4” value was “A (A=<1 uM)”.
O=c1[nH]cc(-c2cnc(NC[C@]3(c4ncccc4F)C[C@H](F)C3)nc2)c(=O)[nH]1 [5-[2-({[3-fluoro-1-(3-fluoro(2-pyridyl))cyclobutyl]methyl}amino)pyrimidin-5-yl]-1,3-dihydropyrimidine-2,4-dione] was tested, and the “Mean AC1.4” value was “D (D=>20 uM)”.
With Oc1ccc(-c2cnc(NC[C@]3(c4ncccc4F)C[C@H](F)C3)nc2)cn1 [5-[2-({[3-fluoro-1-(3-fluoro(2-pyridyl))cyclobutyl]methyl}amino)pyrimidin-5-yl]pyridin-2-ol] the “Mean AC1.4” value was “D (D=>20 uM)”.
Oc1ncc(-c2cnc(NC[C@]3(c4ncccc4F)C[C@H](F)C3)nc2)cn1 [5-[2-({[3-fluoro-1-(3-fluoro(2-pyridyl))cyclobutyl]methyl}amino)pyrimidin-5-yl]pyrimidin-2-ol] was tested, and the “Mean AC1.4” value was “D (D=>20 uM)”.
With Nc1ccnn1C(=O)c1cnc(NCC2(c3ncccc3F)CCC2)nc1 [5-aminopyrazolyl 2-({[(3-fluoro(2-pyridyl))cyclobutyl]methyl}amino) pyrimidin-5-yl ketone] the “Mean AC1.4” value was “C (C=10-20 uM)”.
With Oc1cnc(-c2cnc(NC[C@]3(c4ncccc4F)C[C@H](F)C3)nc2)c(F)c1 [5-fluoro-6-[2-(([3-fluoro-1-(3-fluoro(2-pyridyl))cyclobutyl]methyl}amino)pyrimidin-5-yl]pyridin-3-ol] the “Mean AC1.4” value was “B (B=1-10 uM)”.
For Oc1ncc(-c2cnc(N3CC4(c5ncccc5F)CC3C4)nc2)cn1 [5-{2-[4-(3-fluoro-2-pyridyl)-2-azabicyclo[2.1.1]hex-2-yl]pyrimidin-5-yl}pyrimidin-2-ol], the “Mean AC1.4” value was “D (D=>20 uM)”.
With CC(C)(Nc1ncc(-c2cnc3c(c2)NC(=O)C3)cn1)c1ncccc1Cl [6-(2-{[1-(3-chloro(2-pyridyl))-isopropyl]amino}pyrimidin-5-yl)-2-pyrrolino[3,2-b]pyridin-2-one] the “Mean AC1.4” value was “D (D=>20 uM)”.
For CC(C)(Nc1ncc(-c2cccc(C(N)=O)n2)cn1)c1ncccc1Cl [6-(2-{[1-(3-chloro(2-pyridyl))-isopropyl]amino}pyrimidin-5-yl)pyridine-2-carboxamide], the “Mean AC1.4” value was “C (C=10-20 uM)”.
CC(C)(Nc1ncc(-c2cc(C(N)=O)ncn2)cn1)c1ncccc1Cl [6-(2-{[1-(3-chloro(2-pyridyl))-isopropyl]amino}pyrimidin-5-yl)pyrimidine-4-carboxamide] was tested, and the “Mean AC1.4” value was “B (B=1-10 uM)”.
For CC(C)(Nc1ncc(-c2cn3cc(C(N)=O)sc3n2)cn1)c1ncccc1Cl [6-(2-{[1-(3-chloro(2-pyridyl))-isopropyl}amino}pyrimidin-5-yl) imidazo[2,1-b]1,3-thiazoline-2-carboxamide], the “Mean AC1.4” value was “D (D=>20 uM)”.
In the case of O=c1cc(-c2cnc(NC[C@]3(c4ncccc4F)C[C@H](F)C3)nc2)[nH]c(=O)[nH]1 [6-[2-({[3-fluoro-1-(3-fluoro(2-pyridyl))cyclobutyl]methyl}amino)pyrimidin-5-yl]-1,3-dihydropyrimidine-2,4-dione], the “Mean AC1.4” value is reported as “B (B=1-10 uM)”.
In the case of Oc1ccc(-c2cnc(NC[C@]3(c4ncccc4F)C[C@H](F)C3)nc2)nn1 [6-[2-({[3-fluoro-1-(3-fluoro(2-pyridyl))cyclobutyl]methyl}amino)pyrimidin-5-yl]pyridazin-3-ol], the “Mean AC1.4” value is reported as “D (D=>20 uM)”.
With Oc1ccc(-c2cnc(NC[C@]3(c4ncccc4F)C[C@H](F)C3)nc2)nc1 [6-[2-({[3-fluoro-1-(3-fluoro(2-pyridyl))cyclobutyl]methyl}amino)pyrimidin-5-yl]pyridin-3-ol] the “Mean AC1.4” value was “B (B=1-10 uM)”.
With CC(=O)N1CCc2nc(NCC(C)(C)c3ccc(F)cc3)ncc2C1 [6-acetyl-2-{[2-(4-fluorophenyl)-2-methylpropyl]amino}-5,6,7,8-tetrahydropyridino[4,3-d]pyrimidine] the “Mean AC1.4” value was “D (D=>20 uM)”.
N#Cc1n[nH]c2cc(F)c(-c3cnc(NC4(c5ncccc5F)CCC4)nc3)cc12 [6-fluoro-5-(2-{[(3-fluoro(2-pyridyl))cyclobutyl]amino}pyrimidin-5-yl)-1H-indazole-3-carbonitrile] was tested, and the “Mean AC1.4” value was “B (B=1-10 uM)”.
